Measurements taken from ChEMBL document CHEMBL2434882, “A novel [1,2,4] triazolo [1,5-a] pyrimidine-based phenyl-linked steroid dimer: synthesis and its cytotoxic activity” (Eur J Med Chem, 2013).
Activity calls are given as the source filed them. The calls are words filed in the database; no cut-off is given here.

Key:
ECa-109 cell line [1] = test: Induction of apoptosis in human EC109 cells assessed as damaged cells at 10 uM after 12 hrs by annexin V-FITC/propidium iodide staining-based flow cytometric analysis (reference value: 0.4%); type: functional
[2] = Cell cycle arrest in human EC109 cells assessed as accumulation at S phase at 10 uM after 24 hrs by propidium iodide staining-based flow cytometric analysis (reference value: 37.99%); type: functional; conditions: ECa-109
ECa-109 cell line [3] = test: Induction of apoptosis in human EC109 cells assessed as damaged cells at 20 uM after 24 hrs by annexin V-FITC/propidium iodide staining-based flow cytometric analysis (reference value: 0.1%); type: functional
[4] = Cell cycle arrest in human EC109 cells assessed as accumulation at G2/M phase at 2.5 uM after 24 hrs by propidium iodide staining-based flow cytometric analysis (reference value: 6.31%); type: functional; conditions: ECa-109
[5] = Disruption of mitochondrial membrane potential in human EC109 cells at 5 uM after 24 hrs by JC1 staining-based flow cytometric analysis (reference value: 8.1%); type: functional, ECa-109
ECa-109 cell line [6] = test: Induction of apoptosis in human EC109 cells assessed as damaged cells at 5 uM after 12 hrs by annexin V-FITC/propidium iodide staining-based flow cytometric analysis (reference value: 0.4%); type: functional
[7] = Cell cycle arrest in human EC109 cells assessed as accumulation at G2/M phase at 5 uM after 12 hrs by propidium iodide staining-based flow cytometric analysis (reference value: 13.72%); type: functional; conditions: ECa-109
ECa-109 cell line [8] = test: Induction of apoptosis in human EC109 cells assessed as damaged cells at 10 uM after 24 hrs by annexin V-FITC/propidium iodide staining-based flow cytometric analysis (reference value: 0.1%); type: functional
ECa-109 cell line [9] = test: Induction of apoptosis in human EC109 cells assessed as early apoptotic cells at 5 uM after 24 hrs by annexin V-FITC/propidium iodide staining-based flow cytometric analysis (reference value: 3.8%); type: functional
ECa-109 = test: Disruption of mitochondrial membrane potential in human EC109 cells after 24 hrs by JC1 staining-based flow cytometric analysis; type: functional, cell-based
ECa-109 cell line [10] = test: Induction of apoptosis in human EC109 cells assessed as early apoptotic cells at 20 uM after 12 hrs by annexin V-FITC/propidium iodide staining-based flow cytometric analysis (reference value: 6.1%); type: functional
ECa-109 cell line [11] = test: Induction of apoptosis in human EC109 cells assessed as live cells at 40 uM after 24 hrs by annexin V-FITC/propidium iodide staining-based flow cytometric analysis (reference value: 93.6%); type: functional
[12] = Cell cycle arrest in human EC109 cells assessed as accumulation at G2/M phase at 5 uM after 24 hrs by propidium iodide staining-based flow cytometric analysis (reference value: 6.31%); type: functional; conditions: ECa-109
ECa-109 cell line [13] = test: Induction of apoptosis in human EC109 cells assessed as late apoptotic cells at 40 uM after 12 hrs by annexin V-FITC/propidium iodide staining-based flow cytometric analysis (reference value: 1.4%); type: functional
ECa-109 cell line [14] = test: Induction of apoptosis in human EC109 cells assessed as live cells at 40 uM after 12 hrs by annexin V-FITC/propidium iodide staining-based flow cytometric analysis (reference value: 92.1%); type: functional
SMMC-7721 = test: Cytotoxicity against human SMMC7721 cells assessed as growth inhibition after 72 hrs by MTT assay; type: functional, cell-based; conditions: SMMC-7721, 72 h
ECa-109 cell line [15] = test: Induction of apoptosis in human EC109 cells assessed as early apoptotic cells at 40 uM after 12 hrs by annexin V-FITC/propidium iodide staining-based flow cytometric analysis (reference value: 6.1%); type: functional
[16] = Cell cycle arrest in human EC109 cells assessed as accumulation at S phase at 10 uM after 12 hrs by propidium iodide staining-based flow cytometric analysis (reference value: 33.29%); type: functional; conditions: ECa-109
[17] = Cytotoxicity against human L02 cells assessed as cell viability at 20 uM after 72 hrs by MTT assay relative to control; type: cell-based; conditions: read-out: Activity
ECa-109 cell line [18] = test: Induction of apoptosis in human EC109 cells assessed as damaged cells at 20 uM after 12 hrs by annexin V-FITC/propidium iodide staining-based flow cytometric analysis (reference value: 0.4%); type: functional
[19] = Cell cycle arrest in human EC109 cells assessed as accumulation at G0/G1 phase at 5 uM after 12 hrs by propidium iodide staining-based flow cytometric analysis (reference value: 50.87%); type: functional; conditions: ECa-109
[20] = Disruption of mitochondrial membrane potential in human EC109 cells at 10 uM after 24 hrs by JC1 staining-based flow cytometric analysis (reference value: 8.1%); type: functional, ECa-109
ECa-109 cell line [21] = test: Induction of apoptosis in human EC109 cells assessed as early apoptotic cells at 2.5 uM after 24 hrs by annexin V-FITC/propidium iodide staining-based flow cytometric analysis (reference value: 3.8%); type: functional
ECa-109 cell line [22] = test: Induction of apoptosis in human EC109 cells assessed as late apoptotic cells at 5 uM after 24 hrs by annexin V-FITC/propidium iodide staining-based flow cytometric analysis (reference value: 2.5%); type: functional
[23] = Cytotoxicity against human EC109 cells assessed as growth inhibition after 72 hrs by MTT assay; type: functional, cell-based; conditions: ECa-109, 72 h
ECa-109 cell line [24] = test: Induction of apoptosis in human EC109 cells assessed as late apoptotic cells at 20 uM after 24 hrs by annexin V-FITC/propidium iodide staining-based flow cytometric analysis (reference value: 2.5%); type: functional
ECa-109 cell line [25] = test: Induction of apoptosis in human EC109 cells assessed as damaged cells at 40 uM after 24 hrs by annexin V-FITC/propidium iodide staining-based flow cytometric analysis (reference value: 0.1%); type: functional
ECa-109 cell line [26] = test: Induction of apoptosis in human EC109 cells assessed as live cells at 5 uM after 12 hrs by annexin V-FITC/propidium iodide staining-based flow cytometric analysis (reference value: 92.1%); type: functional
ECa-109 cell line [27] = test: Induction of apoptosis in human EC109 cells assessed as early apoptotic cells at 40 uM after 24 hrs by annexin V-FITC/propidium iodide staining-based flow cytometric analysis (reference value: 3.8%); type: functional
[28] = Cytotoxicity against human L02 cells assessed as growth inhibition after 72 hrs by MTT assay; type: cell-based; conditions: L02, 72 h
[29] = Cell cycle arrest in human EC109 cells assessed as accumulation at G0/G1 phase at 2.5 uM after 24 hrs by propidium iodide staining-based flow cytometric analysis (reference value: 51.57%); type: functional; conditions: ECa-109
ECa-109 cell line [30] = test: Induction of apoptosis in human EC109 cells assessed as nuclear fragmentation at 1.25 to 20 uM after 24 hrs by Hoechst 33258 staining-based fluorescence microscopic analysis; type: functional, cell-based
ECa-109 cell line [31] = test: Induction of apoptosis in human EC109 cells assessed as live cells at 5 uM after 24 hrs by annexin V-FITC/propidium iodide staining-based flow cytometric analysis (reference value: 93.6%); type: functional
PC-3 = test: Cytotoxicity against human PC3 cells assessed as growth inhibition after 72 hrs by MTT assay; type: functional, cell-based; conditions: PC-3, 72 h
ECa-109 cell line [32] = test: Induction of apoptosis in human EC109 cells assessed as increase in early apoptotic cells at 2.5 to 40 uM by annexin V-FITC/propidium iodide staining-based flow cytometric analysis; type: functional, cell-based; conditions: TDE = time-dependent effect
ECa-109 cell line [33] = test: Induction of apoptosis in human EC109 cells assessed as early apoptotic cells at 10 uM after 24 hrs by annexin V-FITC/propidium iodide staining-based flow cytometric analysis (reference value: 3.8%); type: functional

C[C@]12CC[C@H](O)CC1=CC[C@@H]1[C@@H]2CC[C@]2(C)c3nc4ncnn4c(-c4cccc(-c5c6c(nc7ncnn57)[C@@]5(C)CC[C@H]7[C@@H](CC=C8C[C@@H](O)CC[C@@]87C)[C@@H]5C6)c4)c3C[C@@H]12
Activity (ECa-109 cell line [1]): 2.7% | Activity [2]: 28.5% | Activity (ECa-109 cell line [3]): 2.4% | Activity [4]: 14.8% | Activity [5]: 40% | Activity (ECa-109 cell line [6]): 2% | Activity [7]: 20.8% | Activity (ECa-109 cell line [8]): 2.9% | Activity (ECa-109 cell line [9]): 39.1% | Activity (ECa-109): Dose-dependent effect | Activity (ECa-109 cell line [10]): 34% | Activity (ECa-109 cell line [11]): 8.3% | Activity [12]: 19.4% | Activity (ECa-109 cell line [13]): 65.3% | Activity (ECa-109 cell line [14]): 14.6% | IC50 (SMMC-7721): 1680 nM | Activity (ECa-109 cell line [15]): 12.2% | Activity [16]: 21.6% | viability at 72 h, 20 µM [17]: 70% | Activity (ECa-109 cell line [18]): 2.1% | Activity [19]: 52.9% | Activity [20]: 76.7% | Activity (ECa-109 cell line [21]): 25% | Activity (ECa-109 cell line [22]): 12.2% | IC50 [23]: 2360 nM | Activity (ECa-109 cell line [24]): 58.9% | Activity (ECa-109 cell line [25]): 1.3% | Activity (ECa-109 cell line [26]): 59.9% | Activity (ECa-109 cell line [27]): 12% | IC50 [28]: 83000 nM | Activity [29]: 52.5% | Activity (ECa-109 cell line [30]): Active | Activity (ECa-109 cell line [31]): 48.2% | IC50 (PC-3): 3180 nM | Activity (ECa-109 cell line [32]): tde | Activity (ECa-109 cell line [33]): 24%
